This is an account of results in patent US11007243B2, “Enzyme-assisted supercritical extraction of nigella sativa seeds” (priority 2016, dated 2021).

Where two headings read alike, the source gives them in different places.

One data set deals with rabbits. The note with it: cited from earlier work.
The test system of the next data set is rats. The note with it: cited from earlier work.
A further data set has as its system mice. The note with it: cited from earlier work.
For data set [1] the following is noted: Roghani et al. 2012; cited from earlier work.
Data set [2] concerns Albino Wistar rats injected with Ibotenic acid. The data set is described as follows: Open field test in ibotenic acid (I.C.V.) model. It is filed as in vivo. The note with it: IBO i.c.v., oral treatment 30 days, FIG. 2b. As for the experimental part: Ibotenic acid (IBO) is a non-selective glutamate receptor […] which can be used as a powerful neurotoxin to produce anxiety, stress, depression and dementia. It is injected intra cerebro-ventricularly as a brain lesioning agent specially to destroy the neuronal cells in hippocampal and cortical region responsible for fear, anxiety and depression, as well as learning and memory. […] The NMDA subtype of glutamate receptor is an important mediator of synaptic plasticity and plays a central role in the neurobiological mechanisms of emotionality including fear, anxiety and depression, as well as learning and memory (Barkus et al., European Journal of Pharmacology, 2010; 626(1), 49-56).
Ibotenic acid is administered to Albino Wistar rats at the dose of 5 μg/μL/intracerebroventricularly using Hamilton syringe at the rate of 0.1 μL/min. The animals were then treated continuously for 30 days with Black cumin extracts (BCE) orally at various dosages (thymoquinone content) and evaluated for its anxiolytic properties using elevated plus maze and modified open field apparatus. The various black cumin extracts (BCE) dosages evaluated in the study are outlined in Table-3.
The open field test is conventionally designed to assess the state of anxiety, locomotor and exploratory activity. […] Results were statistically analysed by one-way ANOVA followed by Tukey's multiple comparison test.

The next data set has as its system IMR-32 cell line. In words: SRB growth assay on IMR-32 neuronal cell line. The note with it: Homo sapiens, IMR-32, read-out: GI 50 (concentration causing 50% inhibition of cell growth). It is filed as cell-based. For orientation: The SRB assay estimates cell density from bound dye.
The next data set relates to U373-MG cell line. The data set is described as follows: SRB growth assay on U373 MG glial cell line. It is filed as cell-based. The note with it: Homo sapiens, read-out: GI 50 (concentration causing 50% inhibition of cell growth).

The LD50 is the dose expected to kill half of the subjects tested. With `CC1=CC(=O)C(C(C)C)=CC1=O` [TQ, 2-isopropyl-5-methyl-1,4-benzoquinone], the LD50 with rabbits was 2400 mg/kg; in the data set with rats (intra-peritoneal injection), 57.5 mg/kg; with rats (oral ingestion), 794.3 mg/kg; in the data set with mice (intra-peritoneal injection), 104.7 mg/kg; in the data set with mice (oral ingestion) it was 870.9 mg/kg. Also, the Memory improvement result in data set [1] was “memory improvement in a dose dependent manner”.

Consider `CC12CC3CC(C)(C1)CC(N)(C3)C2` [Memantine], for which the “Rearing behaviour (rearing frequency), open field” value in data set [2] is “no significant difference between the BCE4 treated group, memantine group and the control group”.

In the case of `COc1cccc2c1C(=O)c1c(O)c3c(c(O)c1C2=O)C[C@@](O)(C(=O)CO)C[C@@H]3O[C@H]1C[C@H](N)[C@H](O)[C@H](C)O1` [Adriamycin], the GI50 in the data set with IMR-32 cell line and in the data set on U373-MG cell line was below 10 mg/L throughout.
